The source of these data is paper PMC3554773, “Screening of a Specific Peptide Binding to VPAC1 Receptor from a Phage Display Peptide Library” (PLoS ONE, 2013).

No end group written: not given here.

The target in assay [1] is T1, VPAC1 receptor (CHO-K1/VPAC1 cells) (Homo sapiens, UniProt P32241).
T1 construct: expressed in transfected cells
T1 sequence (P32241 31-457): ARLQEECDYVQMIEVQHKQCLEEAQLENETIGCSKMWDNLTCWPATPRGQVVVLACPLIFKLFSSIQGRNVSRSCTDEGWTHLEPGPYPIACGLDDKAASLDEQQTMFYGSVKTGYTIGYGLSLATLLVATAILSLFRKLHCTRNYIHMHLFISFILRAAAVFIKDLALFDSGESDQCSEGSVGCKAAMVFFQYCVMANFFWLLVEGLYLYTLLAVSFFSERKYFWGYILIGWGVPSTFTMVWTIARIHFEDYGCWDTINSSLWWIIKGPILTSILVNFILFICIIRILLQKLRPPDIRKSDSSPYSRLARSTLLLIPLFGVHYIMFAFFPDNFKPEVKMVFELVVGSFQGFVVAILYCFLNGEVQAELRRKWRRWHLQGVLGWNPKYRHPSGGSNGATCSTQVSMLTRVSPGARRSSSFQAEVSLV
Briefly: in vitro subtractive panning of 12-mer phage display peptide library on CHO-K1/VPAC1 cells, DNA sequencing of clones. It is filed as binding. Conditions: 60 phage clones randomly selected after fourth round of panning; three lacked exogenous sequence.

For assay [2], the target named is T1, VPAC1 receptor (CHO-K1/VPAC1 cells). Put plainly: cellular ELISA, binding of phage clones to CHO-K1/VPAC1 versus wild-type CHO-K1 cells. Conditions: 1×10^10 pfu/well, 37°C, 2 h, HRP-anti-M13, glutaral-fixed cells, triplicate, p<0.01. In general terms: In an ELISA, binding on a coated surface is turned into a signal by an enzyme label.
Assay [3] shares this target. Put plainly: competitive inhibition ELISA: binding of positive phage clone VP2 to CHO-K1/VPAC1 cells, inhibited by synthetic peptide. How it is done:
Competitive binding inhibition between the positive phage clone and its encoded peptide was evaluated in this study using the competitive inhibition ELISA method. The procedure was similar to that of the cellular ELISA mentioned above in “Cell enzyme-linked immunosorbent assay”. Briefly, CHO-K1/VPAC1 cells were incubated with 100 µl of synthetic peptide encoded by the positive phage clone at various concentrations (0, 0.0001, 0.001, 0.01, 0.1, 1, 10 and 100 µg/ml) in a 96-well plate after it was blocked with 2% BSA. Subsequently, 1×10^10 pfu homologous positive phage clones was added to the cells and incubated at 37°C for 2 h. The unbound phages were washed away, and an HRP-conjugated anti-M13 monoclonal antibody was used to detect the bound phages as described above. The rate of inhibition was calculated using the following formula: rate of inhibition = (A value of inhibition control – A value of inhibition)/A value of inhibition control×100%. An unrelated peptide corresponding to an unrelated phage was used as a negative control.

With DTGHSPEPGKVP [VP13], the “Frequency (number of the peptide sequence appeared in the whole selected phage clones)” value in assay [1] was 1.

As for GYTFQPLNEWAI [VP18], in assay [1], the “Frequency (number of the peptide sequence appeared in the whole selected phage clones)” value was found to be 1.

With AYTTVPYMATLP [VP9], the “Frequency (number of the peptide sequence appeared in the whole selected phage clones)” value in assay [1] stood at 1.

With TVKYSTLVEWPY [VP1], the “binding affinity to CHO-K1/VPAC1 cells compared with CHO-K1 cells (OD450 nm)” value in assay [2] is given as “higher affinity to CHO-K1/VPAC1 cells than CHO-K1 cells”. Also, in assay [1], the “Frequency (number of the peptide sequence appeared in the whole selected phage clones)” value was 8.

NSIALINDTHKR [VP3]: the “Frequency (number of the peptide sequence appeared in the whole selected phage clones)” value in assay [1] was determined as 2.

As for GWLRSPSLLFSN [VP16], in assay [2], the “binding affinity to CHO-K1/VPAC1 cells compared with CHO-K1 cells (OD450 nm)” value is listed as “higher affinity to CHO-K1/VPAC1 cells than CHO-K1 cells”. For the same sequence, the “Frequency (number of the peptide sequence appeared in the whole selected phage clones)” value in assay [1] is 2.

On to TVTFAPLRMWHP [VP15], for which the “Frequency (number of the peptide sequence appeared in the whole selected phage clones)” value in assay [1] is 1.

GGSIAASELEYY [VP10]: the “binding affinity to CHO-K1/VPAC1 cells compared with CHO-K1 cells (OD450 nm)” value in assay [2] was “higher affinity to CHO-K1/VPAC1 cells than CHO-K1 cells”. In addition, the “Frequency (number of the peptide sequence appeared in the whole selected phage clones)” value in assay [1] is given as 2.

As to DTFHSPLVALVS [VP5], in assay [2], the “binding affinity to CHO-K1/VPAC1 cells compared with CHO-K1 cells (OD450 nm)” value is given as “higher affinity to CHO-K1/VPAC1 cells than CHO-K1 cells”. The “Frequency (number of the peptide sequence appeared in the whole selected phage clones)” value in assay [1] worked out at 5.

With TYTFRPLYEPPL [VP17], the “Frequency (number of the peptide sequence appeared in the whole selected phage clones)” value in assay [1] is listed as 1.

On to ETVRQAEELFYV [VP7], for which, in assay [1], the “Frequency (number of the peptide sequence appeared in the whole selected phage clones)” value is reported as 1.

With TWKFEPLGTFID [VP4], the “Frequency (number of the peptide sequence appeared in the whole selected phage clones)” value in assay [1] was found to be 3.

GSFHSPLLAYVS [VP12]: in assay [1], the “Frequency (number of the peptide sequence appeared in the whole selected phage clones)” value is 1.

One may read the IC50 as the point on the concentration scale where inhibition reaches its midpoint. For the sequence GFRFGALHEYNS [VP2], in assay [3] (inhibition of phage VP2 binding to CHO-K1/VPAC1 cells, VIP value from Figure 5A), the “IC50 of VP2 peptide compared with IC50 of VIP” value is on record as “significantly lower than the IC50 of VIP”. Also, the IC50 in assay [3] (peptide 0-100 µg/ml, 1×10^10 pfu phage VP2, 37°C, 2 h) is about 13.2 nM.

For SFRFFPLDMWPH [VP8], the “binding affinity to CHO-K1/VPAC1 cells compared with CHO-K1 cells (OD450 nm)” value in assay [2] was “higher affinity to CHO-K1/VPAC1 cells than CHO-K1 cells”. The “Frequency (number of the peptide sequence appeared in the whole selected phage clones)” value in assay [1] is 5.

On to YTSHFPLETWPQ [VP6], for which the “binding affinity to CHO-K1/VPAC1 cells compared with CHO-K1 cells (OD450 nm)” value in assay [2] is on record as “higher affinity to CHO-K1/VPAC1 cells than CHO-K1 cells”. In assay [1], the “Frequency (number of the peptide sequence appeared in the whole selected phage clones)” value is given as 5.

For GTFHSPLLDHKS [VP14], the “Frequency (number of the peptide sequence appeared in the whole selected phage clones)” value in assay [1] is 1.

As for HSTLKLGALTNY [VP11], the “Frequency (number of the peptide sequence appeared in the whole selected phage clones)” value in assay [1] is on record as 1.
